Several values for one entry are separate records, joined by “and”; a condition that tells them apart may be missing. Equal values may be shown once. Inconclusive results and toxic doses are left out. The calls were made as follows: active = survival T/C of 150% or more; inactive = T/C below 125% in these data. Peptide text beside a SMILES is read from it. * marks the point of attachment. Cbz = O=C(OCc1ccccc1)*; Bn = c1ccc(C*)cc1
Tested on: P388 leukemia ip, CD2F1 mice, survival T/C
Experiment: NCI In Vivo Anticancer Drug Screen. Data for tumor model P388 Leukemia (intraperitoneal) in CD2F1 (CDF1) mice
Conditions: endpoint: median survival time, higher = longer survival
In short: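 Mice carrying the transplanted tumor received test compound or vehicle. Survival was recorded in each group, and the value is the treated-group measurement divided by that of the vehicle-treated control group.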

[1] = dose: 100.0 mg/kg/injection, schedule: Q01DX009 (ip), vehicle: saline with Tween-80
[2] = dose: 200.0 mg/kg/injection, schedule: Q01DX009 (ip), vehicle: saline with Tween-80
[3] = dose: 50.0 mg/kg/injection, schedule: Q01DX005 (ip), vehicle: saline
[4] = dose: 100.0 mg/kg/injection, schedule: Q01DX005 (ip), vehicle: saline
[5] = dose: 200.0 mg/kg/injection, schedule: Q01DX005 (ip), vehicle: saline
[6] = dose: 50.0 mg/kg/injection, schedule: Q01DX009 (ip), vehicle: saline
[7] = dose: 100.0 mg/kg/injection, schedule: Q01DX009 (ip), vehicle: saline
[8] = dose: 200.0 mg/kg/injection, schedule: Q01DX009 (ip), vehicle: saline
[9] = dose: 25.0 mg/kg/injection, schedule: Q01DX009 (ip), vehicle: saline
[10] = dose: 25.0 mg/kg/injection, schedule: Q01DX009 (ip), vehicle: Klucel (hydroxypropylcellulose) (HPC)
[11] = dose: 100.0 mg/kg/injection, schedule: Q04DX003 (ip), vehicle: saline with Tween-80
[12] = dose: 25.0 mg/kg/injection, schedule: Q04DX003 (ip), vehicle: saline with Tween-80
[13] = dose: 50.0 mg/kg/injection, schedule: Q04DX003 (ip), vehicle: saline with Tween-80
[14] = dose: 50.0 mg/kg/injection, schedule: Q01DX009 (ip), vehicle: Klucel (hydroxypropylcellulose) (HPC)
[15] = dose: 100.0 mg/kg/injection, schedule: Q01DX009 (ip), vehicle: Klucel (hydroxypropylcellulose) (HPC)
[16] = dose: 200.0 mg/kg/injection, schedule: Q01DX009 (ip), vehicle: Klucel (hydroxypropylcellulose) (HPC)
[17] = dose: 50.0 mg/kg/injection, schedule: Q01DX005 (ip), vehicle: Klucel (hydroxypropylcellulose) (HPC)
[18] = dose: 100.0 mg/kg/injection, schedule: Q01DX005 (ip), vehicle: Klucel (hydroxypropylcellulose) (HPC)
[19] = dose: 200.0 mg/kg/injection, schedule: Q01DX005 (ip), vehicle: Klucel (hydroxypropylcellulose) (HPC)

Measured: T/C

CN1CCN(C(=O)Nc2ccc(N=Nc3ccccc3)cc2)CC1
inactive: dose: 12.5 mg/kg/injection, schedule: Q01DX009 (ip), vehicle: saline sonified 105 % of control | dose: 25.0 mg/kg/injection, schedule: Q01DX009 (ip), vehicle: saline sonified 100 % of control

CCCCCCCc1c(C)[nH]c2cc(OC)ccc2c1=O
inactive: dose: 50.0 mg/kg/injection, schedule: Q01DX009 (ip), vehicle: saline with Tween-80 93 % of control | [1] 95 % of control | [2] 94 % of control

O=c1cc2cccccc-2o1
inactive: dose: 100.0 mg/kg/injection, schedule: Q01DX001 (ip), vehicle: Klucel (hydroxypropylcellulose) (HPC) 101 % of control | dose: 200.0 mg/kg/injection, schedule: Q01DX001 (ip), vehicle: Klucel (hydroxypropylcellulose) (HPC) 103 % of control

Nc1nnc(-c2ccc(Cl)c(Cl)c2)o1
inactive: dose: 100.0 mg/kg/injection, schedule: Q04DX003 (ip), vehicle: Klucel (hydroxypropylcellulose) (HPC) 100 % of control | dose: 200.0 mg/kg/injection, schedule: Q04DX003 (ip), vehicle: Klucel (hydroxypropylcellulose) (HPC) 105 % of control | dose: 400.0 mg/kg/injection, schedule: Q04DX003 (ip), vehicle: Klucel (hydroxypropylcellulose) (HPC) 115 % of control

[NH-]c1ncnc2[nH]c(C[N-]C(Cc3cnc[nH]3)C(=O)O)nc12.[Pd+2] (configuration not stated)
inactive: [3] 90 % of control | [4] 97 % of control | [5] 94 % of control

Cn1c(C(=O)c2cc3ccccc3n2C)cc2ccccc21
inactive: [6] 100 % of control | [7] 97 % of control | [8] 103 % of control

COc1cc2c(cc1O)CCCC(C)(C)C2=O
inactive: [1] 95 % of control | [2] 96 % of control

O=C1NC(CN2CCC(O)CC2)C(=O)NC1CN1CCC(O)CC1 (configuration not stated)
inactive: [9] 100 % of control | [6] 100 % of control | [7] 98 % of control | [8] 97 % of control

C=CCn1/c(=N\NC(=O)c2ccncc2)sc2ccccc21
inactive: dose: 6.25 mg/kg/injection, schedule: Q01DX009 (ip), vehicle: Klucel (hydroxypropylcellulose) (HPC) 114 % of control | dose: 12.5 mg/kg/injection, schedule: Q01DX009 (ip), vehicle: Klucel (hydroxypropylcellulose) (HPC) 100 % of control | [10] 103 % of control

C[C@@]1(CO)[C@H](O)CC[C@@]2(C)[C@H]1CC[C@H]1C[C@@H]3C[C@@]12CC[C@@]3(O)COC(=O)CN
inactive: dose: 5.0 mg/kg/injection, schedule: Q03HX027 (ip), vehicle: saline + alcohol 113 % of control | dose: 10.0 mg/kg/injection, schedule: Q03HX027 (ip), vehicle: saline + alcohol 118 % of control | dose: 12.5 mg/kg/injection, schedule: Q01DX009 (ip), vehicle: saline 105 % of control and 107 % of control | dose: 15.0 mg/kg/injection, schedule: Q01DX009 (ip), vehicle: saline + alcohol 118 % of control | dose: 25.0 mg/kg/injection, schedule: Q01DX005 (iv), vehicle: saline 105 % of control | [9] 107 % of control and 122 % of control | dose: 30.0 mg/kg/injection, schedule: Q01DX009 (ip), vehicle: saline + alcohol 117 % of control | dose: 40.0 mg/kg/injection, schedule: Q03HX027 (ip), vehicle: saline + alcohol 106 % of control | dose: 50.0 mg/kg/injection, schedule: Q01DX005 (iv), vehicle: saline 99 % of control | [6] 114 % of control | dose: 100.0 mg/kg/injection, schedule: Q01DX005 (iv), vehicle: saline 101 % of control | [7] 122 % of control | dose: 120.0 mg/kg/injection, schedule: Q01DX009 (ip), vehicle: saline + alcohol 95 % of control | dose: 200.0 mg/kg/injection, schedule: Q01DX005 (iv), vehicle: saline 115 % of control

C=C(C)C1CCC2(CO)C(O)CC3(C)C(CCC4C5(C)CCC(O)C(C)(C)C5CCC43C)C12 (configuration not stated)
inactive: dose: 15.0 mg/kg/injection, schedule: Q01DX009 (ip), vehicle: Klucel (hydroxypropylcellulose) (HPC) 93 % of control | dose: 30.0 mg/kg/injection, schedule: Q01DX009 (ip), vehicle: Klucel (hydroxypropylcellulose) (HPC) 94 % of control | dose: 60.0 mg/kg/injection, schedule: Q01DX009 (ip), vehicle: Klucel (hydroxypropylcellulose) (HPC) 86 % of control | dose: 120.0 mg/kg/injection, schedule: Q01DX009 (ip), vehicle: Klucel (hydroxypropylcellulose) (HPC) 92 % of control

CCNNC(=O)[C@@H]1[C@H](c2cc(OC)c(OC)c(OC)c2)c2cc3c(cc2[C@H](O)[C@H]1CO)OCO3
inactive: [11] 109 % of control | dose: 200.0 mg/kg/injection, schedule: Q04DX003 (ip), vehicle: saline with Tween-80 113 % of control | dose: 400.0 mg/kg/injection, schedule: Q04DX003 (ip), vehicle: saline with Tween-80 104 % of control

CC[n+]1c(/C=C/c2ccc(N(CCC(=O)O)CCC(=O)O)cc2)sc2ccccc21
inactive: dose: 12.5 mg/kg/injection, schedule: Q04DX003 (ip), vehicle: saline with Tween-80 99 % of control | [12] 100 % of control | [13] 101 % of control

CCN=C1C=CC(=C(c2ccc(N)cc2)c2ccc(N(CC)CC)c(C)c2)C=C1
inactive: dose: 1.56 mg/kg/injection, schedule: Q01DX005 (ip), vehicle: saline 106 % of control | dose: 3.12 mg/kg/injection, schedule: Q01DX005 (ip), vehicle: saline 112 % of control

CC(=O)Nc1nnc(SSc2nnc(NC(C)=O)s2)s1
inactive: [14] 90 % of control | [15] 102 % of control | [16] 94 % of control

Cn1cnc([N+](=O)[O-])c1SCC(N)C(=O)O (configuration not stated)
inactive: [17] 94 % of control | [18] 94 % of control | [19] 94 % of control

N/C=C1\Cc2ccccc2C1=O
inactive: dose: 50.0 mg/kg/injection, schedule: Q01DX009 (ip), vehicle: suspension in saline 95 % of control | dose: 100.0 mg/kg/injection, schedule: Q01DX009 (ip), vehicle: suspension in saline 98 % of control | dose: 200.0 mg/kg/injection, schedule: Q01DX009 (ip), vehicle: suspension in saline 104 % of control

CCOC(=O)CNC(=O)C(CSCc1ccccc1)NC(=O)C(NC(=O)OCc1ccccc1)C(C)C (stereo not drawn) (Cbz-Val-Cys(Bn)-Gly-OEt; configuration not given here)
inactive: [17] 98 % of control | [18] 100 % of control | [19] 88 % of control

COc1ccc2c(ccc3oc([N+](=O)[O-])cc32)c1
inactive: [17] 116 % of control

CCN(CC)CCOC(=O)C(OCC(C)C)(c1ccccc1)c1ccccc1
inactive: [17] 110 % of control | [18] 108 % of control

c1c[n+](CC2CO2)ccc1-c1cc[n+](CC2CO2)cc1 (configuration not stated)
inactive: [10] 120 % of control
active: dose: 40.0 mg/kg/injection, schedule: Q01DX009 (ip), vehicle: Klucel (hydroxypropylcellulose) (HPC) 162 % of control | [14] 163 % of control | dose: 80.0 mg/kg/injection, schedule: Q01DX009 (ip), vehicle: Klucel (hydroxypropylcellulose) (HPC) 159 % of control | [15] 161 % of control

O=CCC1CC2CCCCN2O1 (configuration not stated)
inactive: [12] 102 % of control | [13] 101 % of control | [11] 108 % of control

NC(=O)c1n[nH][nH]c1=O
inactive: [3] 115 % of control | [4] 105 % of control | [5] 115 % of control

CCCCCc1c(C)[nH]n(C(N)=NCCSCc2nc[nH]c2C)c1=O
inactive: dose: 60.0 mg/kg/injection, schedule: Q01DX005 (ip), vehicle: Klucel (hydroxypropylcellulose) (HPC) 100 % of control | dose: 120.0 mg/kg/injection, schedule: Q01DX005 (ip), vehicle: Klucel (hydroxypropylcellulose) (HPC) 102 % of control | dose: 240.0 mg/kg/injection, schedule: Q01DX005 (ip), vehicle: Klucel (hydroxypropylcellulose) (HPC) 91 % of control

CCCCCCCCSCCN(CC)CC
inactive: [3] 104 % of control | [4] 103 % of control | [5] 95 % of control

CCCCCSCN(CC)CC
inactive: dose: 25.0 mg/kg/injection, schedule: Q01DX009 (ip), vehicle: saline with Tween-80 103 % of control | [9] 99 % of control and 101 % of control | [6] 100 % of control and 104 % of control and 91 % of control | [7] 99 % of control and 101 % of control and 104 % of control | [2] 114 % of control | [8] 119 % of control (2×) and 120 % of control

CCOC([O-])=N/C(=N/[n+]1ccccc1)c1ccccc1
inactive: [14] 107 % of control | [15] 96 % of control | [16] 100 % of control

Reference: PubChem BioAssay AID330 (DTP/NCI, 2004)
